target: human TLR7 (Homo sapiens (Human), UniProt Q9NYK1); experiment: HEK293-Blue-hTLR-7 cells assay (SEAP reporter); type: cell-based; settings: 20 hours incubation
Source text: HEK293-Blue-hTLR-7 Cells Assay: A stable HEK293-Blue-hTLR-7 cell line was purchased from InvivoGen (Cat.#: hkb-htlr7, San Diego, Calif., USA). These cells were designed for studying the stimulation of human TLR7 by monitoring the activation of NF-κB. A SEAP (secreted embryonic alkaline phosphatase) reporter gene was placed under the control of the […] minimal promoter fused to five NF-κB and AP-1-binding sites. The SEAP was induced by activating NF-κB and AP-1 via stimulating HEK-Blue hTLR7 cells with TLR7 ligands. Therefore the reporter expression was regulated by the NF-κB promoter upon stimulation of human TLR7. The cell culture supernatant SEAP reporter activity was determined using QUANTI-Blue™ kit (Cat.#: rep-qb 1, Invivogen, San Diego, Ca, USA) at a wavelength of 640 nm, a detection medium that turns purple to blue in the presence of alkaline phosphatase. HEK293-Blue-hTLR7 cells were incubated at a density of 250,000˜450,000 cells/mL in a volume of 180 μL in a 96-well plate in Dulbecco's Modified Eagle's medium (DMEM) containing 4.5 g/l glucose, 50 U/ml penicillin, […], […], 2 mM L-glutamine, 10% (v/v) heat-inactivated fetal bovine serum for 24 h. Then the HEK293-Blue-hTLR-7 cells were incubated with addition of 20 μL test compound in a serial dilution in the presence of final DMSO at 1% and perform incubation under 37° C. in a CO2 incubator for 20 hours. Then 20 μL of the supernatant from each well was incubated with 180 μL Quanti-blue substrate solution at 37° C. for 1-3 hours and the absorbance was read at 620˜655 nm using a spectrophotometer.

human TLR7, sequence (Q9NYK1 27-1049): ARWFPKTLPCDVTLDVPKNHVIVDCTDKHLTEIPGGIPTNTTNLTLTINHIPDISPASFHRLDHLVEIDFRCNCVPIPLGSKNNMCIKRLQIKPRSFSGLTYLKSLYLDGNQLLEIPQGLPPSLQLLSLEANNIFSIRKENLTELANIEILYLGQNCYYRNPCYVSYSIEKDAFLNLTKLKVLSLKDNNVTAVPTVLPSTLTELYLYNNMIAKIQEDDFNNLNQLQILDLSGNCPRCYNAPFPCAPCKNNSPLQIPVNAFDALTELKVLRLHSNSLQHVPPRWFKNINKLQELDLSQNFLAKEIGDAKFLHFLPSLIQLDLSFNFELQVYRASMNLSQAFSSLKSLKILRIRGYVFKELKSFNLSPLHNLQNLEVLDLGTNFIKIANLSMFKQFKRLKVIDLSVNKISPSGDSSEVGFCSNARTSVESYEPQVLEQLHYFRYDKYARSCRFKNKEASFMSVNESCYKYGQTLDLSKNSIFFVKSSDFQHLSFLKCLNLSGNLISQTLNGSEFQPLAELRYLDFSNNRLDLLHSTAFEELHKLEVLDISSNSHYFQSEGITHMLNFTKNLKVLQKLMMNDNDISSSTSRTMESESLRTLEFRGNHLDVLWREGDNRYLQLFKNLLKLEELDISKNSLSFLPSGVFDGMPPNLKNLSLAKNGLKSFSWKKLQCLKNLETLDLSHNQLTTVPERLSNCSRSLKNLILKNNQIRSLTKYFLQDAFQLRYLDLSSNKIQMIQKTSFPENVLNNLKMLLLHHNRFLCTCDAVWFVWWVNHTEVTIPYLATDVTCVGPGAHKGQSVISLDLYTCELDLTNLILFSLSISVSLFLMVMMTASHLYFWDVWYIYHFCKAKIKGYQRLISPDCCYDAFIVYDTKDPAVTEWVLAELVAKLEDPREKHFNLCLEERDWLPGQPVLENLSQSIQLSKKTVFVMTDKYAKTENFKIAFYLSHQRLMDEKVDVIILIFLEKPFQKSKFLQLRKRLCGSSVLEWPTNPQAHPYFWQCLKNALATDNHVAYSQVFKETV

Going from Nc1nc2c(sc(=O)n2[C@@H]2O[C@H](CO)S[C@H]2CC(=O)O)c(=O)[nH]1 (relative stereo) [Example 2-P1, 2-[(trans-2,4-trans-4,5)-5-(5-amino-2,7-dioxo-6H-thiazolo[4,5-d]pyrimidin-3-yl)-2-(hydroxymethyl)-1,3-oxathiolan-4-yl]acetic acid] to COC(=O)CC1SC(CO)OC1n1c(=O)sc2c(=O)[nH]c(N)nc21 (stereo not drawn) [Example 1-P1, methyl 2-[(trans-2,4-trans-4,5)-5-(5-amino-2,7-dioxo-6H-thiazolo[4,5-d]pyrimidin-3-yl)-2-hydroxymethyl)-1,3-oxathiolan-4-yl]acetate], the EC50 rises from 144 µM to 317 µM (2.2-fold). The first is the more potent here.

Compared with COC(=O)CC1SC([C@H](C)O)OC1n1c(=O)sc2c(=O)[nH]c(N)nc21 (single isomer, unassigned) [Example 9-P3], CC[C@H](O)[C@H]1O[C@@H](n2c(=O)sc3c(=O)[nH]c(N)nc32)[C@H](CC(=O)OC)S1 [Example 4-P1, methyl 2-[(2S,4S,5R)-5-(5-amino-2,7-dioxo-6H-thiazolo[4,5-d]pyrimidin-3-yl)-2-[(1S)-1-hydroxypropyl]-1,3-oxathiolan-4-yl]acetate] is 1.7-fold lower in EC50: 22 µM for the first, 13 µM for the second.

C[C@H](O)C1OC(n2c(=O)sc3c(=O)[nH]c(N)nc32)C(CC(=O)O)S1 (single isomer, unassigned) [Example 10-P3] and CC[C@H](O)[C@H]1O[C@@H](n2c(=O)sc3c(=O)[nH]c(N)nc32)[C@H](CC(=O)O)S1 [Example 5-P1, 2-[(2S,4S,5R)-5-(5-amino-2,7-dioxo-6H-thiazolo[4,5-d]pyrimidin-3-yl)-2-[(1S)-1-hydroxypropyl]-1,3-oxathiolan-4-yl]acetic acid] are within 1.5-fold of each other in EC50: 23 µM for the first, 24 µM for the second.

Going from CCCC[C@H](O)C1OC(n2c(=O)sc3c(=O)[nH]c(N)nc32)C(CC(=O)O)S1 (single isomer, unassigned) [Example 11-P3] to C=CC[C@H](O)C1OC(n2c(=O)sc3c(=O)[nH]c(N)nc32)C(CC(=O)O)S1 (single isomer, unassigned) [Example 12-P3], the EC50 falls from 321 µM to 42 µM (7.6-fold).

First: COC(=O)CC1SC([C@@H](O)C2CC2)OC1n1c(=O)sc2c(=O)[nH]c(N)nc21 (single isomer, unassigned) [Example 13-P3]
Second: Nc1nc2c(sc(=O)n2C2OC([C@@H](O)C3CC3)SC2CC(=O)O)c(=O)[nH]1 (single isomer, unassigned) [Example 14-P3]
The EC50 of the first is 1.5-fold higher: 15 µM for the first, 10 µM for the second.

Compared with CN(C)C(=O)CC1SC(CO)OC1n1c(=O)sc2c(=O)[nH]c(N)nc21 (stereo not drawn) [Example 3-P1, 2-[(trans-2,4-trans-4,5)-5-(5-amino-2,7-dioxo-6H-thiazolo[4,5-d]pyrimidin-3-yl)-2-(hydroxymethyl)-1,3-oxathiolan-4-yl]-N,N-dimethyl-acetamide], CC[C@H](O)[C@H]1O[C@@H](n2c(=O)sc3c(=O)[nH]c(N)nc32)[C@H](CC(=O)N(C)C)S1 [Example 7-P1, 2-[(2S,4S,5R)-5-(5-amino-2,7-dioxo-6H-thiazolo[4,5-d]pyrimidin-3-yl)-2-[(1S)-1-hydroxypropyl]-1,3-oxathiolan-4-yl]-N,N-dimethyl-acetamide] is 17-fold lower in EC50: 469 µM for the first, 28 µM for the second.

Going from CC[C@H](O)[C@H]1O[C@@H](n2c(=O)sc3c(=O)[nH]c(N)nc32)[C@H](CC(=O)NC)S1 [Example 6-P1, 2-[(2S,4S,5R)-5-(5-amino-2,7-dioxo-6H-thiazolo[4,5-d]pyrimidin-3-yl)-2-[(1S)-1-hydroxypropyl]-1,3-oxathiolan-4-yl]-N-methyl-acetamide] to CC[C@H](O)[C@H]1O[C@@H](n2c(=O)sc3c(=O)[nH]c(N)nc32)[C@H](CC(=O)N2CCOCC2)S1 [Example 8-P1, 5-amino-3-[(2S,4S,5R)-2-[(1S)-1-hydroxypropyl]-4-(2-morpholino-2-oxo-ethyl)-1,3-oxathiolan-5-yl]-6H-thiazolo[4,5-d]pyrimidine-2,7-dione], the EC50 falls from 23 µM to 2.5 µM (9.2-fold).

tested on: human hepatocytes; experiment: Metabolic conversion of prodrugs in human hepatocytes; type: in vitro ADME; settings: not given
Source text: Metabolism of Prodrugs: Compounds of Formula (II) A study was undertaken to evaluate the metabolic conversion of prodrugs, compounds of formula (II) or (IIa), to compounds of formula (I) or (Ia) of the present invention. The prodrugs, compounds of formula (II) or (IIa), can be metabolized to the active compound of formula (I) or (Ia) and other compounds of the invention in the body if they are served as prodrugs. Hepatocytes are often used to assess the degree of metabolic conversion of prodrugs in the body of animal or human. A study was undertaken to evaluate the metabolic conversion of prodrug Example 15, to the corresponding active form, Example 5-P1, in the presence of human hepatocytes. The formation of active form, Example 5-P1, was monitored in the study. For comparison, the metabolic conversion of famciclovir to penciclovir was also assessed. Cryopreserved hepatocytes plating medium (Cat.#: PY-HMD-03) was purchased from RILD Research Institute for Liver Diseases (Shanghai) Co. Ltd. Cryopreserved human hepatocyte (Cat.#: X008005, Lot#:VRR) was purchased from BioreclamationIVT (Baltimore, Md.). The stock hepatocyte suspension was prepared from cryopreserved hepatocytes in plating medium at the concentration of 1.8×10^6 cells/mL. […] The compounds were quantified on an API5500 […] instrument in the ESI-Positive MRM mode.

CC[C@H](OC(=O)c1ccccc1)[C@H]1O[C@@H](n2c(=O)sc3cnc(N)nc32)[C@H](CC(=O)OC)S1 [Example 15, [(1S)-1-[(2S,4S,5R)-5-(5-amino-2-oxo-thiazolo[4,5-d]pyrimidin-3-yl)-4-(2-methoxy-2-oxo-ethyl)-1,3-oxathiolan-2-yl]propyl]benzoate] was tested, and the “Metabolic conversion of prodrug to active metabolite” value was “metabolized to yield the corresponding active metabolites”.
CC(=O)OCC(CCn1cnc2cnc(N)nc21)COC(C)=O [Famciclovir, famciclovir, reference compound] was tested, and the “Metabolic conversion of prodrug to active metabolite” value was “metabolized to yield the corresponding active metabolites”.

Source: patent US10183954B2, “Oxathiolane carboxylic acids and derivatives for the treatment and prophylaxis of virus infection” (Hoffmann-La Roche Inc., priority 2016, dated 2019)
